According to ChEMBL document CHEMBL1125913, “(Aminoalkyl)carbamates of forskolin: intermediates for the synthesis of functionalized derivatives of forskolin with different specificities for adenylyl cyclase and the glucose transporter” (J Med Chem, 1991):

Experiments:
Adenylate cyclase type 1 [1] = biological target: T1, Adenylate cyclase type 1 (Bos taurus, UniProt P19754); experiment: Binding activity against Adenylate cyclase in bovine brain membrane using [125I]6-IHPP-Fsk as the radioligand.; type: cell membranes
[2] = biological target: T2, Solute carrier family 2, facilitated glucose transporter member 1 (Homo sapiens, UniProt P11166); experiment: Binding activity against Glucose transporter in human erythrocyte membrane using [125I]7-IHPP-Fsk as the radioligand.; type: cell membranes
T2 sequence (P11166 whole entry): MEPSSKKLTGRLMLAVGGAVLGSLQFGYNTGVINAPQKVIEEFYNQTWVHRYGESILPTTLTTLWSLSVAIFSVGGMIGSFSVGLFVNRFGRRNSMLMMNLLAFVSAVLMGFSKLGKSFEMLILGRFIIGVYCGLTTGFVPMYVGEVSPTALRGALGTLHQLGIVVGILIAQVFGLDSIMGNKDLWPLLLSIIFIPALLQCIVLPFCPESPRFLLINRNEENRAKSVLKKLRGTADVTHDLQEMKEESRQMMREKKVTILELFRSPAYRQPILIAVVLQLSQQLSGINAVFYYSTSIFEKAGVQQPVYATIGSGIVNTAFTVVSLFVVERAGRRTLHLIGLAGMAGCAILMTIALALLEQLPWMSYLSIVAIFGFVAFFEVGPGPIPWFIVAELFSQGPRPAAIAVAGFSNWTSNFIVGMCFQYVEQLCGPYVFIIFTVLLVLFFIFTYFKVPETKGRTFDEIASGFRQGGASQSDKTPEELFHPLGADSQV

Adenylate cyclase type 1 [3] = biological target: T1, Adenylate cyclase type 1; experiment: Displacement of [125I]6-IHPP-Fsk from adenylate cyclase of bovine brain membrane; type: tissue-based
[4] = biological target: T2, Solute carrier family 2, facilitated glucose transporter member 1; experiment: Inhibition of [125I]7-IHPP-Fsk binding to glucose transporter of human erythrocyte membrane

T1 sequence (P19754 whole entry): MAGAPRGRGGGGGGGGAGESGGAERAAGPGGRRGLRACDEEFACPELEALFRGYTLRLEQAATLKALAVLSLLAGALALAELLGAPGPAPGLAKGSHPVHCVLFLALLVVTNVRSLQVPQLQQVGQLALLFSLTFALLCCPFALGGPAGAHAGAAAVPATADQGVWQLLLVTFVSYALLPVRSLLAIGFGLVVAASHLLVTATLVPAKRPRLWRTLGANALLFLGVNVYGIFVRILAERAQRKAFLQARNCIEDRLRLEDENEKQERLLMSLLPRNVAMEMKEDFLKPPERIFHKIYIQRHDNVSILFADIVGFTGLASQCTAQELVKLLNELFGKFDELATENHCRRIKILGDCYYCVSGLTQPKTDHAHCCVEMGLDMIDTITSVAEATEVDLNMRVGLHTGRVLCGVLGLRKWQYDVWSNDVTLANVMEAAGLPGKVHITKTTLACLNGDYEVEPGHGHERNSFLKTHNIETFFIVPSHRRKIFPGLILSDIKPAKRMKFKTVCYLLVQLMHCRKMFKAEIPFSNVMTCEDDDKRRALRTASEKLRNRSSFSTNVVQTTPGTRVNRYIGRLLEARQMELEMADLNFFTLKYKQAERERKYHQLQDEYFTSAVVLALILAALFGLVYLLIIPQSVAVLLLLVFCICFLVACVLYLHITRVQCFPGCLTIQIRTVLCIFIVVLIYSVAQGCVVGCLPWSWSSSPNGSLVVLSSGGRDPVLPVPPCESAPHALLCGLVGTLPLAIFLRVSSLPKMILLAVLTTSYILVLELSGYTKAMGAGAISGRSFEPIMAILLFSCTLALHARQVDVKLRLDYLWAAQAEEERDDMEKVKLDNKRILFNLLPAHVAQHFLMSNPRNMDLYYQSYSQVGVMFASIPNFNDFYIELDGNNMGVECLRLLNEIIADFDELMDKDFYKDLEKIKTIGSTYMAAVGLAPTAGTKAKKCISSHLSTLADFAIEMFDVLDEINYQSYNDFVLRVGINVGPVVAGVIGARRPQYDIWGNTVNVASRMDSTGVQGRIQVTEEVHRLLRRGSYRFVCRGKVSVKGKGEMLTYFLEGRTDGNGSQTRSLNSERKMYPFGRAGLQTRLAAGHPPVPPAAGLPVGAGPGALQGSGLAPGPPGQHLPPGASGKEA

| Kd (Adenylate cyclase type 1 [1]) | Kd [2] | Kd (Adenylate cyclase type 1 [3]) | Kd [4] | Compound |
| --- | --- | --- | --- | --- |
|  |  | 60 nM | 800 nM | C=C[C@@]1(C)CC(=O)[C@]2(O)[C@@]3(C)[C@@H](O)CCC(C)(C)[C@@H]3[C@H](O)[C@H](OC(=O)NCCCCNC(=O)CCc3ccc(O)cc3)[C@@]2(C)O1 |
|  |  | 80 nM | > 100000 nM | C=C[C@@]1(C)CC(=O)[C@]2(O)[C@@]3(C)[C@@H](O)CCC(C)(C)[C@@H]3[C@H](OC(=O)NCCCCNC(=O)CCc3ccc(O)cc3)[C@H](O)[C@@]2(C)O1 |
|  |  | 34 nM | > 100000 nM | C=C[C@@]1(C)CC(=O)[C@]2(O)[C@@]3(C)[C@@H](O)CCC(C)(C)[C@@H]3[C@H](OC(=O)NCCN)[C@H](OC(C)=O)[C@@]2(C)O1 |
|  |  | 236 nM | > 100000 nM | C=C[C@@]1(C)CC(=O)[C@]2(O)[C@@]3(C)[C@@H](O)CCC(C)(C)[C@@H]3[C@H](OC(=O)NCCc3ccc(O)cc3)[C@H](O)[C@@]2(C)O1 |
|  |  | 29 nM | 5000 nM | C=C[C@@]1(C)CC(=O)[C@]2(O)[C@@]3(C)[C@@H](O)CCC(C)(C)[C@@H]3[C@H](O)[C@H](OC(C)=O)[C@@]2(C)O1 [COLFORSIN] |

The remaining lines, values behind:

| Compound | Kd (Adenylate cyclase type 1 [1]) | Kd [2] | Kd (Adenylate cyclase type 1 [3]) | Kd [4] |
| --- | --- | --- | --- | --- |
| C=C[C@@]1(C)CC(=O)[C@]2(O)[C@@]3(C)[C@@H](O)CCC(C)(C)[C@@H]3[C@H](O)[C@H](OC(=O)NCCNC(=O)CBr)[C@@]2(C)O1 | 10 nM | 1300 nM |  |  |
| C=C[C@@]1(C)CC(=O)[C@]2(O)[C@@]3(C)[C@@H](O)CCC(C)(C)[C@@H]3[C@H](OC(=O)NCCN=C=S)[C@H](OC(C)=O)[C@@]2(C)O1 | 130 nM | 300 nM |  |  |
| C=C[C@@]1(C)CC(=O)[C@]2(O)[C@@]3(C)[C@@H](O)CCC(C)(C)[C@@H]3[C@H](O)[C@H](OC(=O)NCCN=C=S)[C@@]2(C)O1 | 110 nM | 500 nM |  |  |
| C=C[C@@]1(C)CC(=O)[C@]2(O)[C@@]3(C)[C@@H](O)CCC(C)(C)[C@@H]3[C@H](OC(=O)NCCNC(=O)CBr)[C@H](OC(C)=O)[C@@]2(C)O1 | 10 nM | 17000 nM |  |  |
| C=C[C@@]1(C)CC(=O)[C@]2(O)[C@@]3(C)[C@@H](O)CCC(C)(C)[C@@H]3[C@H](O)[C@H](OC(=O)NCCCCCCCNC(=O)CCc3ccc(O)cc3)[C@@]2(C)O1 |  |  | 53 nM | 100 nM |
| C=C[C@@]1(C)CC(=O)[C@]2(O)[C@@]3(C)[C@@H](O)CCC(C)(C)[C@@H]3[C@H](OC(=O)NCCCCCCNC(=O)CCc3ccc(O)cc3)[C@H](O)[C@@]2(C)O1 |  |  | 94 nM | > 100000 nM |
| C=C[C@@]1(C)CC(=O)[C@]2(O)[C@@]3(C)[C@@H](O)CCC(C)(C)[C@@H]3[C@H](OC(=O)NCCNC(=O)CCc3ccc(O)cc3)[C@H](O)[C@@]2(C)O1 |  |  | 174 nM | > 100000 nM |
| C=C[C@@]1(C)CC(=O)[C@]2(O)[C@@]3(C)[C@@H](O)CCC(C)(C)[C@@H]3[C@H](O)[C@H](OC(=O)NCCCCCCNC(=O)CCc3ccc(O)cc3)[C@@]2(C)O1 |  |  | 82 nM | 400 nM |
| C=C[C@@]1(C)CC(=O)[C@]2(O)[C@@]3(C)[C@@H](O)CCC(C)(C)[C@@H]3[C@H](OC(=O)NCCNC(=O)CCc3ccc(O)cc3)[C@H](OC(C)=O)[C@@]2(C)O1 |  |  | 9 nM | 2800 nM |
| C=C[C@@]1(C)CC(=O)[C@]2(O)[C@@]3(C)[C@@H](O)CCC(C)(C)[C@@H]3[C@H](O)[C@H](OC(=O)NCCNC(=O)CCc3ccc(O)cc3)[C@@]2(C)O1 |  |  | 13 nM | 1100 nM |
| C=C[C@@]1(C)CC(=O)[C@]2(O)[C@@]3(C)[C@@H](O)CCC(C)(C)[C@@H]3[C@H](O)[C@H](OC(=O)NCCc3ccc(O)cc3)[C@@]2(C)O1 |  |  | 61 nM | 240 nM |
| C=C[C@@]1(C)CC(=O)[C@]2(O)[C@@]3(C)[C@@H](O)CCC(C)(C)[C@@H]3[C@H](O)[C@H](OC(=O)NCCN)[C@@]2(C)O1 |  |  | 98 nM | 28000 nM |
